# Patent US20080051418A1, “Arylalkanoic Acid Derivative” (priority 2004, published 2008)
# Read-outs that look alike come from different tables or passages of the source.
# How the values were obtained:
# KKA^y mice [1] = experiment: Blood glucose and blood lipid (triglyceride) lowering action in mice; type: in vivo; conditions: Mus musculus, po, 96 h, 4 days, non-administration group = 100%; for inhibition in vivo at 0.005 %: 0.005% in powder diet; for inhibition in vivo at 0.01 %: 0.01% in powder diet (compound of Example 105)
# Text: The test compound was mixed with a powder diet (CE-2, CLEA JAPAN, INC.) at a proportion of 0.005% (0.01% for the compound of Example 105) and freely given to KKA^y mice (9 to 12-week-old, 5 mice per group) which are obesity-insulin independent diabetes mellitus (type-2 diabetes) models, for 4 days. During this period, water was freely given. The blood was drawn from the orbital venous plexus. Glucose and triglyceride in the plasma separated from the blood were quantitated using L Type Wako Glu2 (Wako Pure Chemical Industries, Ltd.) and L Type Wako TG•H (Wako Pure Chemical Industries, Ltd.), respectively, according to an enzyme method.
# PPARγ-RXRα heterodimer = biological target: T1, PPARγ-RXRα heterodimer (Homo sapiens, UniProt P37231); experiment: PPARγ-RXRα heterodimer ligand activity (luciferase reporter); type: cell-based; conditions: PPARγ:RXRα:4ERPP/CHO-K1 cells, 18-24 hr, concentration showing 50% of the maximum induction rate
# T1 construct: expressed in transfected cells; host or cells: CHO-K1
# T1 sequence (P37231 1-505): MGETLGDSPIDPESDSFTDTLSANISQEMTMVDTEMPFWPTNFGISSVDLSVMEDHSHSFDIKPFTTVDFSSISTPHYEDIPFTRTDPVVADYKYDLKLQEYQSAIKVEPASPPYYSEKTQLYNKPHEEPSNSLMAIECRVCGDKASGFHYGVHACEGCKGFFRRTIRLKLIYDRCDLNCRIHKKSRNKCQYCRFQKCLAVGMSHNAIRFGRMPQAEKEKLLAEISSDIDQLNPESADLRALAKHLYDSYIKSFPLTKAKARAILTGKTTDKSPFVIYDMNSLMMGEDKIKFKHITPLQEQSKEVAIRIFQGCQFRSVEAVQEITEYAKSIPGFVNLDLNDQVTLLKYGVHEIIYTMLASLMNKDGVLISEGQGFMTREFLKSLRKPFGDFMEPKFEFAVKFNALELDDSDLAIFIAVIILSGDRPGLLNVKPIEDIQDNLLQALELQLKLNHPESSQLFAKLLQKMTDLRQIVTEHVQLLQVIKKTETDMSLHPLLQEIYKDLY
# T1 sequence (P19793 1-462 partner): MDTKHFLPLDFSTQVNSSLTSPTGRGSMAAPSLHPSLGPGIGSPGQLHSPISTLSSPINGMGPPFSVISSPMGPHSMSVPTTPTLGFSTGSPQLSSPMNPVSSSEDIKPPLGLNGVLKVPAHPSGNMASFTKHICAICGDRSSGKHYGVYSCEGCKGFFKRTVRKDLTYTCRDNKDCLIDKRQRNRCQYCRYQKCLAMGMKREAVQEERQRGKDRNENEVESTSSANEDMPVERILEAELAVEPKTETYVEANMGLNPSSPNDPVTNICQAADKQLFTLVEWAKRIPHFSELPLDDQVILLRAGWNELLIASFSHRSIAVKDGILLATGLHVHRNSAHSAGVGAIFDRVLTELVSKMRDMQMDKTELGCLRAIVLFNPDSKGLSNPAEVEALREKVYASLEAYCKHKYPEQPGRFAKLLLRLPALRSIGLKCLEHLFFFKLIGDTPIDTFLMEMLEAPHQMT
# In short: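 CHO-K1 cells carrying PPARγ, RXRα and a 4ERPP luciferase reporter, exposed to compound 18–24 h at 37 °C in Ham F12 with 0.1% fatty acid-free BSA. Luciferase induction expressed relative to untreated cells (= 1). EC50 is concentration giving 50% of maximal induction.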
# KKA^y mice [2] = experiment: Plasma antiatherogenic index increasing action in mice; type: in vivo; conditions: Mus musculus, po, 96 h, 4 days, increase rate of (HDL cholesterol/total cholesterol)×100, non-administration group = 100%; for change in vivo at 0.005 %: 0.005% in powder diet
# Method: The test compound was mixed with a powder diet (CE-2, CLEA JAPAN, INC.) at a proportion of 0.005% (0.01% for the compound of Example 105) and freely given to KKA^y mice (9 to 12-week-old, 5 mice per group) which are obesity-insulin independent diabetes mellitus (type-2 diabetes) models, for 4 days. During this period, water was freely given. The blood was drawn from fundus and the components were measured using the plasma separated from the blood. The total cholesterol was quantified using L Type Wako cholesterol (Wako Pure Chemical Industries, Ltd.). In addition, an HDL cholesterol precipitation reagent (Wako Pure Chemical Industries, Ltd.) was added to a part of the plasma to allow precipitation of a non-HDL lipoprotein, and the cholesterol (HDL cholesterol) of the supernatant was measured. The plasma antiatherogenic index [(HDL cholesterol/total cholesterol)×100] was calculated from these cholesterol values.
# PPARδ-RXRα heterodimer = biological target: T2, PPARδ-RXRα heterodimer (Homo sapiens, UniProt Q03181); experiment: PPARδ-RXRα heterodimer ligand activity (luciferase reporter); type: cell-based; conditions: transformant of Reference Example 9a of WO03/099793, 36-48 hr, concentration showing 50% of the maximum induction rate
# T2 construct: expressed in transfected cells
# T2 sequence (Q03181 1-441): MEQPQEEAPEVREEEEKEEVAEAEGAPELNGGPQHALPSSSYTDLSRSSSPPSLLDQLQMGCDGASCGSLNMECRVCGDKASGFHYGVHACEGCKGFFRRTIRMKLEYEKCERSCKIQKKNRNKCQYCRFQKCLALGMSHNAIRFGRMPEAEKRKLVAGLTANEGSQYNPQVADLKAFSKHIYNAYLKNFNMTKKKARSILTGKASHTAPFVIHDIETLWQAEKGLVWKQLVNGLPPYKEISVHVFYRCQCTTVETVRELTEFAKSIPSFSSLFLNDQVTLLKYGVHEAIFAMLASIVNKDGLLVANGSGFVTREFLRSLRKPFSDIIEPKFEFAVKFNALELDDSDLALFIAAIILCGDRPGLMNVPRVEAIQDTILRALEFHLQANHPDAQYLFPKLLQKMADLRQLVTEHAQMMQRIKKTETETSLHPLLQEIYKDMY
# T2 sequence (P19793 1-462 partner): T1 sequence (P19793 1-462 partner)
# Method: The transformant described in Reference Example 9a of WO03/099793 was suspended in a DMEM medium [manufactured by Life technologies, Inc., US] containing 0.1% fatty acid-free bovine serum albumin (BSA) (manufactured by Wako Pure Chemical Industries, Ltd.), and inoculated to each well of a 96 well white plate [manufactured by Corning Coster Corporation, US] by 80 μl to 1×10^4 cells/well. Then, the test compound (20 μl) was added, and cultured under the conditions of 37° C., 5% CO2 for 36-48 hr. The medium was removed from the 96 well white plate, 40 μl of PicaGene LT 7.5 (manufactured by Wako Pure Chemical Industries, Ltd.) diluted 2-fold with HBSS (HANKS' BALANCED SALT SOLUTION) [manufactured by BIO WHITTAKER, US] was added and, after stirring, the luciferase activity was determined using the 1420 ARVO Multilabel Counter [manufactured by PerkinElmer, US].
# The induction rate was calculated from the luciferase activity of each test compound based on the luciferase activity of the test compound non-administration group as 1. The test compound concentration and the induction rate were analyzed by PRISM [manufactured by GraphPad Software, Inc., US] to calculate EC50 value (compound concentration showing 50% of the maximum value of induction rate) of the test compound.
# [3] = lowering rate of plasma glucose, read-out: hypoglycemic action (%)
# [4] = lowering rate of plasma triglyceride, read-out: hypolipidemic action (%)
EC50 (PPARγ-RXRα heterodimer) [nM],EC50 (PPARδ-RXRα heterodimer) [nM],melting point [°C],SMILES,inhibition in vivo at 0.005 % (KKA^y mice [1]; [3]) [%],inhibition in vivo at 0.005 % (KKA^y mice [1]; [4]) [%],change in vivo at 0.005 % (KKA^y mice [2]) [%],inhibition in vivo at 0.01 % (KKA^y mice [1]; [3]) [%],inhibition in vivo at 0.01 % (KKA^y mice [1]; [4]) [%],change in vivo at 0.01 % (KKA^y mice [2]; 0.01% in powder diet (compound of Example 105)) [%]
2.3,14,,"COc1cccc(CC(=O)O)c1OCCCc1cc(OC(C)C)nn1Cc1ccc(Cl)cc1Cl [Example 16, (2-{3-[1-(2,4-dichlorobenzyl)-3-isopropoxy-1H-pyrazol-5-yl]propoxy}-3-methoxyphenyl)acetic acid]",57,28,13,,,
15,,,"CCn1cc(CC(=O)O)c(OCCCc2cc(OC(C)C)nn2Cc2ccc(Cl)cc2Cl)n1 [Example 22, (3-{3-[1-(2,4-dichlorobenzyl)-3-isopropoxy-1H-pyrazol-5-yl]propoxy}-1-ethyl-1H-pyrazol-4-yl)acetic acid]",49,53,12,,,
39,,116 to 117,"COc1cccc(CC(=O)O)c1OCCCc1cc(OC(C)C)nn1Cc1ccc(C(F)(F)F)cc1 [Example 51, [2-(3-{3-isopropoxy-1-[4-(trifluoromethyl)benzyl]-1H-pyrazol-5-yl}propoxy)-3-methoxyphenyl]acetic acid]",,,15,,,
1.4,21,,"CCCOc1cc(CCCOc2c(CC(=O)O)cccc2OC)n(Cc2ccc(Cl)cc2Cl)n1 [Example 57, (2-{3-[1-(2,4-dichlorobenzyl)-3-propoxy-1H-pyrazol-5-yl]propoxy}-3-methoxyphenyl)acetic acid]",,,15,,,
34,,,"COc1ccccc1Cn1nc(OC(C)C)cc1CCCOc1c(CC(=O)O)cccc1OC [Example 62, (2-{3-[3-isopropoxy-1-(2-methoxybenzyl)-1H-pyrazol-5-yl]propoxy}-3-methoxyphenyl)acetic acid]",48,61,13,,,
,,,"COCOc1ccc(CCCOc2c(CC(=O)O)cccc2OC)c(Oc2ccc(C(F)(F)F)cn2)c1 [Example 105, {3-methoxy-2-[3-(4-(methoxymethoxy)-2-{[5-(trifluoromethyl)pyridin-2-yl]oxy}phenyl)propoxy]phenyl}acetic acid]",,,,64,64,13
,,,"COc1cccc(CC(=O)O)c1OCCCc1ccc(OC(C)C)cc1Oc1ccc(C(F)(F)F)cn1 [Example 107, {2-[3-(4-isopropoxy-2-{[5-(trifluoromethyl)pyridin-2-yl]oxy}phenyl)propoxy]-3-methoxyphenyl}acetic acid]",,,13,,,
,,,"CCn1cc(CC(=O)O)c(OCCCc2ccc(OC(C)C)cc2Oc2ccc(C(F)(F)F)cn2)n1 [Example 108, {1-ethyl-3-[3-(4-isopropoxy-2-{[5-(trifluoromethyl)pyridin-2-yl]oxy}phenyl)propoxy]-1H-pyrazol-4-yl}acetic acid]",,,12,,,
3.8,77,122 to 123,"COCOc1ccc(CCCOc2nn(C)cc2CC(=O)O)c(Oc2ncc(C(F)(F)F)cc2Cl)c1 [Example 111, (3-{3-[2-{[3-chloro-5-(trifluoromethyl)pyridin-2-yl]oxy}-4-(methoxymethoxy)phenyl]propoxy}-1-methyl-1H-pyrazol-4-yl)acetic acid]",64,45,11,,,
